Where two headings read alike, the source gives them in different places.
Assays:
[1] = system: hepatitis B virus; conditions: cited from earlier work; for HBV markers after dosing was stopped: chronic HBV patients
[2] = Peak and trough plasma levels of FIAU and FAU by HPLC; format: in vivo, human; conditions: in vivo
From the text: Additionally at Baseline, archive plasma samples were taken.

[3] = system: woodchuck hepatitis virus; conditions: cited from earlier work
[4] = Stability in an acid environment; format: physicochemical; conditions: such as is found in the human stomach
[5] = target: DNA polymerase enzyme of woodchuck hepatitis virus (Woodchuck hepatitis B virus, UniProt P03160); conditions: read-out: concentration inhibiting DNA polymerase activity by 50 percent; cited from earlier work
[6] = system: CMV; conditions: read-out: in vitro ED90; cited from earlier work
[7] = typical; read-out: cellular toxicity concentration (ID50); cited from earlier work
[8] = target: DNA polymerase enzyme of human hepatitis B virus (Hepatitis B virus genotype D subtype ayw, UniProt P03156); conditions: read-out: concentration inhibiting DNA polymerase activity by 50 percent; cited from earlier work
[9] = system: HSV-1; conditions: read-out: in vitro ED90; cited from earlier work
[10] = cited from earlier work
[11] = chronic type therapy at HBV DNA suppressive doses

Sequence of DNA polymerase enzyme of human hepatitis B virus (P03156 whole entry): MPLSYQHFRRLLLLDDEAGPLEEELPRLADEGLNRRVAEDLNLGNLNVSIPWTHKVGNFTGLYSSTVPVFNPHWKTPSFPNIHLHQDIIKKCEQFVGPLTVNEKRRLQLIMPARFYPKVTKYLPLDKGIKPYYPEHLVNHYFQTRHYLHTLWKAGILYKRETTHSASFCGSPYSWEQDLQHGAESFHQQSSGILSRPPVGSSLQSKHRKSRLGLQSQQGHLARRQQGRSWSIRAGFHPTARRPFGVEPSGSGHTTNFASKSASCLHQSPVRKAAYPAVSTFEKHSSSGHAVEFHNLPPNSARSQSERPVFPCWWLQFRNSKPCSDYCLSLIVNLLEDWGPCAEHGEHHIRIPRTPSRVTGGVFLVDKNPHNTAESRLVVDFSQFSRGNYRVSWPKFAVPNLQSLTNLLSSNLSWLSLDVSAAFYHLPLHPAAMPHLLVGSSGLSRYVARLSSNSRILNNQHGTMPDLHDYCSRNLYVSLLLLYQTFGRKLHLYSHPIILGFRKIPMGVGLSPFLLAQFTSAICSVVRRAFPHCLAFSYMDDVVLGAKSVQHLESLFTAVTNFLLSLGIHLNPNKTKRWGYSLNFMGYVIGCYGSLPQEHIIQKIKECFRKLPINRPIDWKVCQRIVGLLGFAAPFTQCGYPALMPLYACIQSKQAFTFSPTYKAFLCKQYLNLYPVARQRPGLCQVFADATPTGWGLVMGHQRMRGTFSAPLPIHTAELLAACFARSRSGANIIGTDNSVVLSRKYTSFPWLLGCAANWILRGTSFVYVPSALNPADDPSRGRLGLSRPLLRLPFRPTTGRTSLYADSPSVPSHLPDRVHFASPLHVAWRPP
Sequence of DNA polymerase enzyme of woodchuck hepatitis virus (P03160 whole entry): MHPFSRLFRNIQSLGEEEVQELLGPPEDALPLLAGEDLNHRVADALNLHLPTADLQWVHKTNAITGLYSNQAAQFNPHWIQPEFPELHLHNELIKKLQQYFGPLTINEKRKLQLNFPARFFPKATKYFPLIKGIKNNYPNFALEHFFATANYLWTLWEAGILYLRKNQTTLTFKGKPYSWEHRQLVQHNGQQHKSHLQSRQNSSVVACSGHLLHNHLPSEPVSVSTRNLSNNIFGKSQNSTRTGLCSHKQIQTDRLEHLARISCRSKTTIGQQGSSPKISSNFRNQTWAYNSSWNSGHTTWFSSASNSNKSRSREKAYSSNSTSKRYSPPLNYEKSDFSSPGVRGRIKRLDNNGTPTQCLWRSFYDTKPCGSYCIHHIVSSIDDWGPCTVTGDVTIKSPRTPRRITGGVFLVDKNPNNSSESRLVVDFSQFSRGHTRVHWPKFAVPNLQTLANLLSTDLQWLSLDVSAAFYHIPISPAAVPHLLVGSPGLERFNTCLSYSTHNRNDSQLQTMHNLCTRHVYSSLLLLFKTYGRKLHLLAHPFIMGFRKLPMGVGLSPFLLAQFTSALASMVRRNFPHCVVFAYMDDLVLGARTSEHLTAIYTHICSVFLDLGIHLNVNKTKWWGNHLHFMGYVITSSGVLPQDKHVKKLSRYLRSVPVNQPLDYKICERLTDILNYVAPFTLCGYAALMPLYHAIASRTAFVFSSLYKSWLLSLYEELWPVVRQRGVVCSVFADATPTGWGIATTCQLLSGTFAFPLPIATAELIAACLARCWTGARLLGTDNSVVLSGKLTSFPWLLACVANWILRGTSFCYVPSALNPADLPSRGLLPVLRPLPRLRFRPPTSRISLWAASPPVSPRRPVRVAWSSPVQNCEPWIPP

In the case of interferon-alpha, the “patients with major and sustained decreases in HBV DNA” value ([1]; HBeAg positive chronic HBV infection, therapy for months) is given as “less than half of patients” and the “patient population in which effective” value ([1]; reported) is given as “effective only in non-HIV infected patients with baseline entry serum HBV DNA levels less than 200 pg/ml”.

In the case of `Nc1ncnc2c1ncn2[C@@H]1O[C@H](CO)[C@@H](O)[C@@H]1O` [ara-A], the “HBV markers after dosing was stopped” value [1] is given as “very rapidly rebounded to baseline levels and above” and the “toxicity on continued administration” value [1, 11] is given as “too toxic (persistent and severe neuromuscular pain)”.

For `O=c1ccn([C@@H]2O[C@H](CO)[C@@H](O)[C@@H]2F)c(=O)[nH]1` [FAU, 1-(2'-deoxy-2'-fluoro-β-D-arabinofuranosyl)uracil], the “FAU plasma values (rarely exceeded)” value ([2]; human, po, 1 mg/kg/day) was at most 0.15 µg/mL and the “FAU plasma values after the initial dose” value [2] was “almost always undetectable”.

For `Nc1ncnc2c1ncn2[C@@H]1O[C@H](COP(=O)(O)O)[C@@H](O)[C@@H]1O` [ara-AMP], the “HBV markers after dosing was stopped” value [1] is listed as “very rapidly rebounded to baseline levels and above”, the “HBV markers after dosing was stopped” value ([1]; listed as Ara-AMP) is listed as “rapid rebound of DNA levels to pretreatment levels after 10-28 days of therapy is the norm” and the “toxicity on continued administration” value [1, 11] is listed as “intolerably toxic”. The “toxicity on continued administration” value ([1]; human, in vivo) was “too toxic (persistent and severe neuromuscular pain)” and the “suppression of viral DNA” value ([3]; similar dose given for 14 days) was “suppressed viral DNA but was followed by a rapid rebound to levels above baseline”.

For `Nc1nc(=O)n([C@@H]2O[C@H](CO)[C@@H](O)[C@@H]2F)cc1I` [FIAC, 1-(2'-deoxy-2'-fluoro-β-D-arabinofuranosyl)-5-iodocytosine], the “stability in an acid environment” value [4] is given as “stable in an acid environment”, the IC50 [5] is given as 50 to 100 nM and the EC90 [6] is given as about 500 nM. For the same compound, the CC50 [7] was about 10000 nM, the IC50 [8] was 50 to 100 nM and the EC90 [9] was about 50 nM. The “suppression of viral polymerase and DNA” value ([3]; FIAC 20 mg/kg-day for 7 days) was “Rapid, complete and persistent suppression”, the “accumulation in the plasma” value ([10]; month long TID dosing of FIAC) was “neither FIAC, FIAU, or their metabolites accumulated in the plasma” and the “absorption following oral administration” value ([10]; oral FIAC, patients) was “nearly completely absorbed”. The “conversion of FIAC to FIAU” value ([10]; oral FIAC, patients) was “very rapidly converted to FIAU” and the “FIAC in plasma two hours after dosing” value ([10]; oral FIAC) was “almost never detected”.

Reference: patent publication US5432165A, “Methods for the treatment of infection caused by Hepatitis B virus (HBV)” (priority 1992, dated 1995)
